Data published in patent US12391686B2, “Compounds and uses thereof” (Foghorn Therapeutics Inc., priority 2019, dated 2025).

The molecules below were run against T1, Nanoluciferase-BRD9 fusion protein (3×FLAG-NLuc-BRD9) in SYO-1 cells (Homo sapiens, UniProt Q9H8M2) (assay: SYO1 BRD9 NanoLuc Degradation Assay). Conditions: Table 6B; SYO-1 cells expressing 3×FLAG-NLuc-BRD9, 6 hours incubation, 1 μM top dose; read-out: SYO1 BRD9-NanoLuc degradation IC50.
T1 construct: expressed in transfected cells; host or cells: SYO-1
T1 sequence (Q9H8M2 1-597): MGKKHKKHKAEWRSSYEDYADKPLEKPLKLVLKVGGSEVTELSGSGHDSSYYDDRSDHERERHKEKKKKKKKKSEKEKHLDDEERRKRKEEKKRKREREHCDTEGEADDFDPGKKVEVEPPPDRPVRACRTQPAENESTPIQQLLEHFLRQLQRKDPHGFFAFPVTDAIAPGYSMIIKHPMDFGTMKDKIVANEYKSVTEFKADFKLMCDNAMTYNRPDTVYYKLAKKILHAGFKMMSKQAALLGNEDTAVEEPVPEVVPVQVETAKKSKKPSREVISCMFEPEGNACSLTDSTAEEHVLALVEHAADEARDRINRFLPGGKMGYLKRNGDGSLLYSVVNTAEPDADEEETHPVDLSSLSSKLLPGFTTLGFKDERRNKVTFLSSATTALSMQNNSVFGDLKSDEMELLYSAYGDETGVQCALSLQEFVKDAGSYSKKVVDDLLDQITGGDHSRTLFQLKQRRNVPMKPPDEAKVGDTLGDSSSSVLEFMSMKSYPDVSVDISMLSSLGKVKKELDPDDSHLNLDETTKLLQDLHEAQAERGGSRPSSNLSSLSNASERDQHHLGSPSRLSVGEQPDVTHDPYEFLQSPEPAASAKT
Format: cell-based
Procedure: Procedure: A stable SYO-1 cell line expressing 3×FLAG-NLuc-BRD9 was generated. On day 0 cells were seeded in 30 μL media into each well of 384-well cell culture plates. The seeding density was 8000 cells/well. On day 1, cells were treated with 30 nL DMSO or 30 nL of 3-fold serially DMSO-diluted compounds (10 points in duplicates with 1 μM as final top dose). Subsequently plates were incubated for 6 hours in a standard tissue culture incubator and equilibrated at room temperature for 15 minutes. Nanoluciferase activity was measured by adding 15 μL of freshly prepared Nano-Glo Luciferase Assay Reagent (Promega N1130), shaking the plates for 10 minutes and reading the bioluminescence using an EnVision reader.
Results: The Inhibition % was calculated using the following formula: % Inhibition=100×(LumHC−Lumsample)/(LumHC−LumLC). DMSO treated cells are employed as High Control (HC) and 1 μM of a known BRD9 degrader standard treated cells are employed as Low Control (LC).

DC50 [nM]	Compound
10 to 100	COc1cc(-c2cn(C)c(=O)c3cnc(N(C)C)cc23)cc(OC)c1CN1CCC(CCNC(=O)NCc2ccc3c(c2)C(=O)N(C2CCC(=O)NC2=O)C3=O)CC1 (centres unmarked) [Compound D74]
< 10	COc1cc(-c2cn(C)c(=O)c3cnc(N(C)C)cc23)cc(OC)c1CN1CCC(C(C)N2CCC3(CC2)CC(Oc2ccc4c(c2)C(=O)N(C2CCC(=O)NC2=O)C4=O)C3)CC1 (centres unmarked) [Compound D75]
< 10	COc1cc(-c2cn(C)c(=O)c3cnc(N(C)C)cc23)cc(OC)c1CN1CCN([C@@H](C)COc2ccc3c(c2)C(=O)N(C2CCC(=O)NC2=O)C3=O)CC1 (some centres unmarked) [Compound D76]
< 10	COc1cc(-c2cn(C)c(=O)c3cnc(N(C)C)cc23)cc(OC)c1CN1CCN([C@H](C)COc2ccc3c(c2)C(=O)N(C2CCC(=O)NC2=O)C3=O)CC1 (some centres unmarked) [Compound D77]
< 10	COc1cc(-c2cn(C)c(=O)c3cnc(N(C)C)cc23)cc(OC)c1CN1CCN(C(C)(C)COc2ccc3c(c2)C(=O)N(C2CCC(=O)NC2=O)C3=O)CC1 (centres unmarked) [Compound D78]
< 10	COc1cc(-c2cn(C)c(=O)c3cnc(N4CCC4)cc23)cc(OC)c1CN1CCC(C(=O)N2CCC3(CC2)CC(Oc2ccc4c(c2)C(=O)N(C2CCC(=O)NC2=O)C4=O)C3)CC1 (centres unmarked) [Compound D79]
< 10	COc1cc(-c2cn(C)c(=O)c3cnc(N4CCC4)cc23)cc(OC)c1CN1CCC(CN2CCC3(CC2)CC(Oc2ccc4c(c2)C(=O)N(C2CCC(=O)NC2=O)C4=O)C3)CC1 (centres unmarked) [Compound D80]
< 10	COc1cc(-c2cn(C)c(=O)c3cnc(N(C)C)cc23)cc(OC)c1CN1CCN(C(C)(C)COc2cccc3c2C(=O)N(C2CCC(=O)NC2=O)C3=O)CC1 (centres unmarked) [Compound D81]
< 10	COc1cc(-c2cn(C)c(=O)c3cnc(N(C)C)cc23)cc(OC)c1CN1CCN(C[C@@H](C)Oc2ccc3c(c2)C(=O)N(C2CCC(=O)NC2=O)C3=O)CC1 (some centres unmarked) [Compound D82]
< 10	COc1cc(-c2cn(C)c(=O)c3cnc(N(C)C)cc23)cc(OC)c1CN1CCN(C[C@H](C)Oc2ccc3c(c2)C(=O)N(C2CCC(=O)NC2=O)C3=O)CC1 (some centres unmarked) [Compound D83]
10 to 100	COc1cc(-c2cn(C)c(=O)c3cnc(N(C)C)cc23)cc(OC)c1CN1CCC(C[N+]2(C)CCC3(CC2)CC(Oc2ccc4c(c2)C(=O)N(C2CCC(=O)NC2=O)C4=O)C3)CC1 (centres unmarked) [Compound D84]
< 10	COc1cc(-c2cn(C)c(=O)c3cnc(N(C)C)cc23)cc(OC)c1CN1CCC(CCN2CCN(c3ccc4c(c3)C(=O)N(C3CCC(=O)N(COC(=O)OC(C)C)C3=O)C4=O)CC2)CC1 (centres unmarked) [Compound D85]
< 10	COc1cc(-c2cn(C)c(=O)c3cnc(N(C)C)cc23)cc(OC)c1CN1Cc2cc3c(cc2C1)C(=O)N(C1CCC(=O)NC1=O)C3=O (centres unmarked) [Compound D86]
< 10	COc1cc(-c2cn(C)c(=O)c3cnc(N(C)C)cc23)cc(OC)c1CN1CCC(n2cc([C@H](C)Oc3ccc4c(c3)C(=O)N(C3CCC(=O)NC3=O)C4=O)nn2)CC1 (some centres unmarked) [Compound D87]
10 to 100	COc1cc(-c2cn(C)c(=O)c3cnc(N(C)C)cc23)cc(OC)c1CN1CCC(CCN2CCN(C3CCC(=O)NC3=O)C(=O)C2)CC1 (centres unmarked) [Compound D88]
< 10	COc1cc(-c2cn(C)c(=O)c3cnc(N(C)C)cc23)cc(OC)c1CN1CC(C#Cc2ccc3c(c2)C(=O)N(C2CCC(=O)NC2=O)C3=O)C1 (centres unmarked) [Compound D89]
< 10	COc1cc(-c2cn(C)c(=O)c3cnc(N(C)C)cc23)cc(OC)c1CN1CCC2(CCN(c3ccc4c(c3)C(=O)N(C3CCC(=O)NC3=O)C4=O)C2)C1 (centres unmarked) [Compound D90]
< 10	COc1cc(-c2cn(C)c(=O)c3cnc(N(C)C)cc23)cc(OC)c1CN1CCC2(C1)CN(c1ccc3c(c1)C(=O)N(C1CCC(=O)NC1=O)C3=O)C2 (centres unmarked) [Compound D91]
< 10	COc1cc(-c2cn(C)c(=O)c3cnc(N(C)C)cc23)cc(OC)c1CN1CCC2CN(c3ccc4c(c3)C(=O)N(C3CCC(=O)NC3=O)C4=O)C21 (centres unmarked) [Compound D92]
< 10	COc1cc(-c2cn(C)c(=O)c3cnc(N(C)C)cc23)cc(OC)c1CN1CCC2C(C1)CN2c1ccc2c(c1)C(=O)N(C1CCC(=O)NC1=O)C2=O (centres unmarked) [Compound D93]
10 to 100	COc1cc(-c2cn(C)c(=O)c3cnc(N(C)C)cc23)cc(OC)c1CN1CC(N2CCN(C3CCC(=O)NC3=O)C(=O)C2)C1 (centres unmarked) [Compound D94]

DC50 [nM]	Compound
< 10	COc1cc(-c2cn(C)c(=O)c3cnc(N(C)C)cc23)cc(OC)c1CN1CCN(C2(COc3ccc4c(c3)C(=O)N(C3CCC(=O)NC3=O)C4=O)COC2)CC1 (centres unmarked) [Compound D95]
< 10	COc1cc(-c2cn(C)c(=O)c3cnc(N(C)C)cc23)cc(OC)c1CN1CCN(CC(C)(C)Oc2ccc3c(c2)C(=O)N(C2CCC(=O)NC2=O)C3=O)CC1 (centres unmarked) [Compound D96]
< 10	COc1cc(-c2cn(C)c(=O)c3cnc(N(C)C)cc23)cc(OC)c1CN1CC(C(C)(C)N2CCC3(CC2)CN(c2ccc4c(c2)C(=O)N(C2CCC(=O)NC2=O)C4=O)C3)C1 (centres unmarked) [Compound D97]
< 10	COc1cc(-c2cn(C)c(=O)c3cnc(N(C)C)cc23)cc(OC)c1CN1CC(Oc2ccc3c(c2)C(=O)N(C2CCC(=O)NC2=O)C3=O)C1 (centres unmarked) [Compound D98]
< 10	COc1cc(-c2cn(C)c(=O)c3cnc(N(C)C)cc23)cc(OC)c1CN1CCC(C(N2CCC3(CC2)CC(Oc2ccc4c(c2)C(=O)N(C2CCC(=O)NC2=O)C4=O)C3)C(F)(F)F)CC1 (centres unmarked) [Compound D99]
< 10	COc1cc(-c2cn(C)c(=O)c3cnc(N(C)C)cc23)cc(OC)c1CN1CCN(C2(COc3cccc4c3C(=O)N(C3CCC(=O)NC3=O)C4=O)COC2)CC1 (centres unmarked) [Compound D100]
< 10	COc1cc(-c2cn(C)c(=O)c3cnc(N(C)C)cc23)cc(Cl)c1CN1CCC(CN2CCC3(CC2)CC(Oc2ccc4c(c2)C(=O)N(C2CCC(=O)NC2=O)C4=O)C3)CC1 (centres unmarked) [Compound D101]
< 10	COc1cc(-c2cn(C)c(=O)c3cnc(N(C)C)cc23)cc(Cl)c1CN1CCC(C(=O)N2CCC3(CC2)CC(Oc2ccc4c(c2)C(=O)N(C2CCC(=O)NC2=O)C4=O)C3)CC1 (centres unmarked) [Compound D102]
< 10	COc1cc(-c2cn(C)c(=O)c3cnc(N(C)C)cc23)cc(OC)c1CN1CCC(CN2CCC3(CC2)CC(Oc2ccc4c(c2)CN(C2CCC(=O)NC2=O)C4=O)C3)CC1 (centres unmarked) [Compound D103]
< 10	COc1cc(-c2cn(C)c(=O)c3cnc(N(C)C)cc23)cc(OC)c1CN1CCC(c2ccc3c(c2)C(=O)N(C2CCC(=O)NC2=O)C3=O)CC1 (centres unmarked) [Compound D104]
< 10	COc1cc(-c2cn(C)c(=O)c3cnc(N(C)C)cc23)cc(OC)c1CN1CCN(CCC2CCN(c3ccc4c(c3)C(=O)N(C3CCC(=O)NC3=O)C4=O)CC2)CC1 (centres unmarked) [Compound D105]
< 10	CNc1cc2c(-c3cc(OC)c(CN4CCN(CCC5CCN(c6ccc7c(c6)C(=O)N(C6CCC(=O)NC6=O)C7=O)CC5)CC4)c(OC)c3)cn(C)c(=O)c2cn1 (centres unmarked) [Compound D106]
< 10	COc1cc(-c2cn(C)c(=O)c3cnc(N(C)C)cc23)cc(OC)c1CN1CCC(CN2CCC3(CC2)CC(Oc2ccc4c(c2)C(=O)N(C2CCC(=O)NC2=O)C4)C3)CC1 (centres unmarked) [Compound D107]
< 10	COc1cc(-c2cn(C)c(=O)c3cnc(N(C)C)cc23)cc(OC)c1CN1CCC(C(C)(C)N2CCC3(CC2)CC(Oc2ccc4c(c2)C(=O)N(C2CCC(=O)NC2=O)C4=O)C3)CC1 (centres unmarked) [Compound D108]
< 10	COc1cc(-c2cn(C)c(=O)c3cnc(N(C)C)cc23)cc(OC)c1CN1CCN(C2(COc3ccc4c(c3)C(=O)N(C3CCC(=O)NC3=O)C4=O)CC2)CC1 (centres unmarked) [Compound D109]
< 10	COc1cc(-c2cn(C)c(=O)c3cnc(N(C)C)cc23)cc(OC)c1CN1CC(C(C)N2CCC3(CC2)CN(c2ccc4c(c2)C(=O)N(C2CCC(=O)NC2=O)C4=O)C3)C1 (centres unmarked) [Compound D110]
< 10	COc1cc(-c2cn(C)c(=O)c3cnc(N(C)C)cc23)cc(OC)c1CN1CCC(C(=O)N2CCC3(CC2)CC(Oc2ccc4c(c2)C(=O)N(C2CCC(=O)NC2=O)C4=O)C3)C(OC)C1 (centres unmarked) [Compound D111]
< 10	CCc1cc(-c2cn(C)c(=O)c3cnc(N(C)C)cc23)cc(OC)c1CN1CCC(CN2CCC3(CC2)CC(Oc2ccc4c(c2)C(=O)N(C2CCC(=O)NC2=O)C4=O)C3)CC1 (centres unmarked) [Compound D112]
< 10	COc1cc(-c2cn(C)c(=O)c3cnc(N(C)C)cc23)cc(OC)c1CN1CCN(c2ccc3c(c2)C(=O)N(C2CCC(=O)NC2=O)C3)CC1 (centres unmarked) [Compound D113]
< 10	COc1cc(-c2cn(C)c(=O)c3cnc(N(C)C)cc23)cc(OC)c1CN1CCN(c2ccc3c(c2)CN(C2CCC(=O)NC2=O)C3=O)CC1 (centres unmarked) [Compound D114]
